# Reference: patent US5336485A, “Method for protecting animals against tacrine induced cytotoxic injury using sterol compounds” (priority 1993, dated 1994)
# Structures can show the parent of a compound that is named as a salt.
# Tests used:
# L1210 leukemia cells [1] = test: Doxorubicin in L1210 leukemia bearing CDF1 mice; format: in vivo, mouse; conditions: DOX 10 mg/kg
# Protocol: The experiments were conducted in accordance with NCI Protocol 1,100. FIGS. 8a-d show the experimental results obtained when male CDF1 mice (n=6) received either vehicle only or 100mg/kg body weight i.p. dose of either alpha-TS or cholesteryl succinate 20 hours prior to DOX administration. FIGS. 8a-d respectively show the results obtained when the mice received 10, 15, 20, and 25 mg DOX/kg body weight. […] FIGS. 9a-d show the experimental results obtained when male CDF1 mice ([…]) were injected (i.p.) with 10^6 murine L1210 leukemia cells followed immediately by an injection of alpha-TS tris salt (100 mg/kg, i.p.) or saline injection (vehicle), and twenty hours later (Day=0) each mouse in three of the groups was i.p. injected with 15, 20, or 25 mg DOX/kg body weight ([…]). Survival was monitored for twenty days.
# liver [2] = test: Acetaminophen-induced hepatotoxicity in rats (AST/ALT); format: in vivo, rat
# Protocol: In vivo experiments were performed to determine if alpha-TS administration protects the liver from the hepatotoxic effects of acetaminophen. Acetaminophen is a commonly used analgesic that is metabolized to a reactive intermediate. […] The other group of male Sprague-Dawley rats received only the acetaminophen challenge. Forty eight hours after the challenge the rats were sacrificed and the levels of aspartate aminotransferase (AST) and alanine aminotransferase (ALT) were measured.
# FIGS. 10 and 11 show the results of in vivo experiments where male Sprague-Dawley rats were given an oral dose of 15 or 30 mg THA/kg body weight, respectively. In the experiments, one group of rats was provided with an i.p. dose of 100 mg cholesteryl succinate tris salt/kg body weight 20 hours prior to the THA challenge, another group of rats only received the THA challenge, and the last group of rats acted as a control and were not challenged. The serum AST levels were determined with respect to time after the THA challenge.
# liver [3] = test: CCl4 induced hepatotoxicity in rats (serum AST/ALT); format: in vivo, rat
# Outline: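 Male Sprague-Dawley rats received test compounds i.p. at 100 mg/kg 20–24 h before oral CCl4 (2.9 g/kg or 1 g/kg). Serum AST and ALT were measured 48 h after CCl4 challenge.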
# [4] = system: L1210 murine leukemia cells; test: Inhibition of L1210 leukemia cell growth in vitro; format: cell-based, mouse
# Protocol: Similar in vitro experiments were conducted with cholesteryl succinate tris salt and alpha-TS tris salt.
# rat hepatocytes [5] = test: Cellular alpha-tocopherol and tocopherol ester content of rat hepatocytes; conditions: 25 μM, Table 2
# Protocol: (§1) At each time-point, rapid separation of viable from non-viable hepatocytes and medium was accomplished by the dibutyl phthalate centrifugation method. Cell viability was monitored hourly by measuring LDH leakage with a Cobas Analyzer and intracellular [K^+ ]with a flame photometer. LDH was routinely measured in the medium while intracellular K^+ was measured in the 10% perchloric acid lysate of viable cells. Lipid peroxidation was determined by measuring TBA reactants in the medium. […] The samples were diluted with 0.3 ml 1% ascorbate in 0.1 M SDS, 0.4 ml ethanol, sonicated and extracted once with 0.8 ml hexane. Next, the hexane extract was evaporated to dryness with N2, the residue dissolved in 2.5% ascorbate in methanol (1 ml) and analyzed (100 μl) by high-performance liquid chromatograph (HPLC). […] The mobile phase, 95% MeOH was run isocratically and the HPLC retention times for delta and alpha-tocopherol were approximately eleven and sixteen minutes, respectively. […] Following the addition of 0.2 ml 4 M HC1, the neutralized KOH-MeOH extracted with 0.8 ml hexane. […] A standard curve for each tocopherol congener was run with every assay. […] Only viable cells were monitored in the laboratory procedures.
# The hepatocytes were subsequently exposed to 50mM EMS for three hours.
# rat hepatocytes [6] = test: EMS-induced cytotoxicity (LDH leakage/cell death) in rat hepatocyte suspensions; conditions: for inhibition at 25 µM: Rattus norvegicus, Hepatocyte
# Protocol: To determine if alpha-TS is a cytoprotective agent under physiological conditions, liver cells were incubated with Waymouth's medium containing approximately 1 mM extracellular Ca^2+ in the presence and absence of alpha-TS.
# as §1
# To determine the relative cytoprotective potency of various tocopherol derivatives, the effect of varying doses of a tocopherol analog on the protection against EMS-induced toxicity was examined in vitro on rat hepatocyte suspensions. Specifically, the following ionizable tocopherol congeners were tested: alpha-TS, alpha tocopheryl glutarate (alpha-TG), and alpha tocopheryl phosphate (alpha-TP). […] 0.1 nmoles is the lower detection limit.
# In vitro experiments were conducted with a variety of different tocopherol and succinate analogs to determine which were protective against EMS induced toxicity. After five hours of incubation with 50 mM EMS and 25μM of a tocopherol or succinate analog, cytoprotection was determined by comparing the percentage of LDH leakage from control hepatocytes (vehicle only, assumed 100% protection) with the EMS only treated cells (assumed 0% protection).
# An in vitro experiment with rat hepatocyte suspensions was performed to determine the effect of esterase inhibitors on alpha-TS.
# (§2) Rat hepatocyte suspensions were subjected to 50 mM EMS and the percentage of cell death, the percentage of intracellular K^+ (a metabolic parameter as discussed above), the depletion of ATP and the effect on lipid peroxidation were monitored.
# rat hepatocytes [7] = test: EMS-induced lipid peroxidation in rat hepatocyte suspensions; format: cell-based; conditions: Rattus norvegicus, Hepatocyte; 25 μM, 50 mM EMS
# Protocol: as §1, §2
# [8] = Tissue distribution of alpha-tocopherol and alpha-tocopherol ester in rats; format: in vivo, rat; conditions: 100 mg/kg ip, 24 h
# Protocol: 100 mg/kg body weight of a tocopherol analog was administered to Sprague-Dawley rats using a peanut oil:ethanol vehicle (3:2). Twenty four hours later the rats were sacrificed and the accumulation of the tocopherol analog in the liver was determined.
# A similar in vivo experiment to that discussed in conjunction with Table 5 was performed to determine if other tissues accumulate alpha-TS. Male Sprague-Dawley rats were given a 100 mg/kg dose of alpha-TS using a variety of chemical forms and vehicles. A variety of techniques were used to administer the alpha-TS. Twenty four hours later the rats were sacrificed and the tissues were tested for alpha-TS accumulation.
# male Sprague-Dawley rats = test: CCl4 induced lethality in rats; format: in vivo, rat
# Protocol: The in vivo effect of alpha-TS was tested by administering a lethal oral dose of carbon tetrachloride (CC14) to male Sprague-Dawley rats.
# In the experiment described in Table 3, a single dose of alpha-TS dissolved in peanut oil:ethanol (3:2) was given to male Sprague-Dawley rats. The dose was given 24 hours prior to an orally administered CCl4 challenge dissolved in peanut oil. Two to nine animals were tested per treatment. The control group comprised rats pretreated with the vehicle only. Survival was monitored for at least 7 days after the toxic insult.
# In vivo experiments were performed to determine if the time the ionizable tocopherol analog (alpha-TS) is administered affects the cytoprotective functions. Male Sprague-Dawley rats were given a 100 mg/kg intraperitoneal dose of a tocopherol or succinate analog and were given a lethal dose of CCl4 (2.9g/kg by oral gavage). Table 7 contrasts the times of administration of the tocopherol or succinate analog and the times of administration of the lethal dose of CCl4 with the survival of the rats in the study (3to 6 rats per protective treatment).
# Several tocopherol and succinate analogs were tested for CCl4 induced lethality. A single dose of the tocopherol or succinate analog was administered twenty four hours prior to orally administering 2.9 g CCl4 /kg body weight. Three to six animals were analyzed per treatment. The rats were monitored for seven days. […]
# variety of cell types = conditions: cited from earlier work
# L1210 leukemia cells [9] = conditions: 100 mg/kg ip
# rat hepatocytes [10] = test: Intracellular K+ of rat hepatocytes exposed to EMS; format: cell-based; conditions: 50 mM EMS, 5 Hrs; concentrations as cell death (Table 15)
# Excerpt: Medzhradsky, Biochem. Med. 13:164 (1975), has noted that the cell's ability to maintain its intracellular concentration of potassium (K^+) is an excellent indicator of the metabolic integrity of the cell. A concentration gradient exists for K^+ with greater concentrations found intracellularly. To maintain this gradient, the cell is dependent on the action of the Na^+ -K^+ ATPase pump and an adequate supply of ATP. As cellular ATP levels decline, the ATPase pump is unable to maintain the gradient resulting in the loss of intracellular K^+ by equilibration with the extracellular space. Because the maintenance of cellular metabolic processes is essential to the continual repair and survival of cells, organ systems, and organisms, the effect of alpha-TS on the metabolic integrity of rat liver cells during a toxic insult was investigated by measuring intracellular K^+ levels. […] At each time-point, rapid separation of viable from non-viable hepatocytes and medium was accomplished by the dibutyl phthalate centrifugation method. Cell viability was monitored hourly by measuring LDH leakage with a Cobas Analyzer and intracellular [K^+ ]with a flame photometer. […] Lipid peroxidation was determined by measuring TBA reactants in the medium. […] Alltech, Avondale, Pa.). […] Following the addition of 0.2 ml 4 M HC1, the neutralized KOH-MeOH extracted with 0.8 ml hexane. […] A standard curve for each tocopherol congener was run with every assay. […] Only viable cells were monitored in the laboratory procedures.
# [11] = system: gluconeogenesis or ATP production; conditions: cited from earlier work
# [12] = 100 mg/kg ip 20 hrs prior, 48 h after 2 g/kg AP (Table 23)
# [13] = 100 mg/kg ip 20 h prior, 48 h after 1 g/kg CCl4 (Table 20)
# [14] = 100 mg/kg ip, 48 h after 1 g/kg CCl4 (Table 33)
# [15] = 100 mg/kg ip, no CCl4 (Table 20)
# [16] = 100 mg/kg ip, no CCl4 (Table 33)
# [17] = rat plasma, 100 mg/kg ip 24 h prior, 48 h after […] CCl4
# [18] = 100 mg/kg ip 20 h prior, 48 h after 1 g/kg CCl4 (Table 27)
smiles,measurement,setting,value
"COc1cccc2c1C(=O)c1c(O)c3c(c(O)c1C2=O)C[C@@](O)(C(=O)CO)C[C@@H]3O[C@H]1C[C@H](N)[C@H](O)[C@H](C)O1 [DOX, doxorubicin, reference compound]",survival of tumor bearing mice given DOX,L1210 leukemia cells [1],dramatically increased
"O=C(O)CCC(=O)O [Tris Succinate, reference compound]",Serum ALT Level,liver [2]; [12],623 ± 339 Units/L
same,Serum AST Level,liver [2]; [12],2286 ± 1190 Units/L
same,Serum ALT Level,"liver [2]; 100 mg/kg ip, no AP (Table 23)",50 ± 7 Units/L
same,Serum AST Level,"liver [2]; 100 mg/kg ip, no AP (Table 23)",93 ± 34 Units/L
same,ALT,liver [3]; [13],3.617 ± 0.858 10^3 units/L
same,AST,liver [3]; [13],11.22 ± 3.15 10^3 units/L
same,ALT,liver [3]; [14],2.135 ± .881 10^3 units/L
same,AST,liver [3]; [14],8.32 ± 2.65 10^3 units/L
same,ALT,liver [3]; [15],0.048 ± 0.005 10^3 units/L
same,AST,liver [3]; [15],0.11 ± 0.02 10^3 units/L
same,ALT,liver [3]; [16],0.058 ± .001 10^3 units/L
same,AST,liver [3]; [16],0.15 ± 5.02 10^3 units/L
same,growth rate of L1210 cells (FIG. 7),[4],no effect on the growth rate
"CC(=O)Oc1c(C)c(C)c2c(c1C)CC[C@@](C)(CCC[C@H](C)CCC[C@H](C)CCCC(C)C)O2 [alpha-TA, d-alpha-tocopherol acetate, reference compound]",Cellular Tocopherol ester,rat hepatocytes [5],1.7 nmoles/10^6 cells
same,Cellular alpha-T,rat hepatocytes [5],0.3 nmoles/10^6 cells
same,inhibition at 25 µM,"rat hepatocytes [6]; read-out: % Protection, 25 μM, 50 mM EMS",12%
same,inhibition at 25 µM,rat hepatocytes [7],14%
same,Liver Concentration Ester,[8],92 ± 6 nmol/g
same,Protection from CCl4,male Sprague-Dawley rats; 100 mg/kg ip (Table 5),No
same,Days Survived After CCl4 Treatment,"male Sprague-Dawley rats; 100 mg/kg ip, 24 h prior, CCl4 2.2 g/kg",> 7 days
same,Days Survived After CCl4 Treatment,"male Sprague-Dawley rats; 100 mg/kg ip, 24 h prior, CCl4 3.8 g/kg",2 days
same,Days Survived After CCl4 Treatment,"male Sprague-Dawley rats; 100 mg/kg ip, 24 h prior, CCl4 5.0 g/kg",2 days
same,Days Survived After CCl4 Treatment,"male Sprague-Dawley rats; 100 mg/kg ip, 24 h prior, CCl4 […]",3 days
same,ALT,liver [3]; [17],"6,108 ± 417 Units/L"
same,AST,liver [3]; [17],"20,233 ± 3525 Units/L"
same,protection against carcinogenic effects of radiation and cancer causing chemicals,variety of cell types,ineffective
"Cc1c(C)c2c(c(C)c1OC(=O)CCC(=O)O)CC[C@@](C)(CCC[C@H](C)CCC[C@H](C)CCCC(C)C)O2 [alpha-TS tris salt, Alpha tocopheryl succinate tris salt]",Survival Time,L1210 leukemia cells [9],7.6 ± 0.6 days
same,ALT,liver [3]; [13],0.371 ± 0.246 10^3 units/L
same,AST,liver [3]; [13],1.86 ± 1.11 10^3 units/L
same,ALT,liver [3]; [18],0.52 ± 0.16 10^3 units/L
same,AST,liver [3]; [18],0.79 ± 0.26 10^3 units/L
same,inhibition in vivo at 100 mg/kg,"liver [3]; Rattus norvegicus, 100 mg/kg ip 20 h prior, 48 h after 1 g/kg CCl4, read-out: % Hepatoprotection",80%
same,growth rate of L1210 cells (FIG. 7),[4],significantly suppress the growth rate of L1210 cells
"COC(=O)CCC(=O)Oc1c(C)c(C)c2c(c1C)CCC(C)(CCCC(C)CCCC(C)CCCC(C)C)O2 (stereo not drawn) [methyl ester of alpha-TS, Alpha-Tocopherol Succinate Methyl Ester]",Cell Death,"rat hepatocytes [6]; 50 mM EMS, 5 Hrs, alpha-TS 25, methyl ester 50, cholesteryl succinate 100, monomethyl/dimethyl succinate 250 μM",30 ± 1%
same,inhibition at 25 µM,"rat hepatocytes [6]; 5 h, read-out: Percent Cytoprotection, 25 μM, 50 mM EMS, 5 h",22 ± 15%
same,Days Survived After CCl4 Treatment,"male Sprague-Dawley rats; 100 mg/kg, single dose 24 h prior, CCl4 […]",> 7 days
same,% Initial Intracellular [K+],rat hepatocytes [10],67 ± 4 % Initial
"COC(=O)CCC(=O)O [methyl ester succinate, methyl ester of succinate]",concentration required to stimulate gluconeogenesis or ATP production,[11],Millimolar concentrations
